Experimental data published in patent publication US9365499B2, “9-aminomethyl substituted tetracycline compounds” (KBP Biosciences Co., Ltd., priority 2011, dated 2016).
In brackets after ≈: the same amount, converted by molar mass.

Tests used:
[1] = system: Methicillin-resistant Staphycoccus epidermidis (MRSE); test: antibacterial activity in vitro, agar dilution method; format: cell-based; details: Staphylococcus epidermidis, Table 2
Text: (§1) The antibacterial spectrum and in vitro antibacterial activity of the compound of the present invention
(§2) Experimental method: the agar dilution method, with reference to Clinical And Laboratory Standards Institute. Methods for Dilution Antimicrobial Susceptibility Tests for Bacteria That Grow Aerobically; Approved Standard-Seventh Edition. CLSI Document M7-A7. Vol 26, no. 2, Wayne, Pa.: Clinical and Laboratory Standards Institute, 2006.
(§3) Wherein MIC represents the minimum inhibitory concentration, MIC90 represents the 90% inhibitory concentration.

[2] = system: Acinetobacter baumannii; test: as above; format: cell-based; details: Table 2, agar dilution, read-out: antibacterial activity MIC, Acinetbacter baumannii
Text: as §1, §2, §3

[3] = system: Streptococcus pyogenes; test: as above; format: cell-based; details: Table 2
Text: as §1, §2, §3

[4] = system: Methicillin-resistant Staphylococcus aureus (MRSA); test: as above; format: cell-based; details: Table 2, agar dilution
Text: as §1, §2, §3

[5] = system: Klebsiella pneumoniae; test: as above; format: cell-based; details: Table 2
Text: as §1, §2, §3

[6] = system: Escherichia coli; test: as above; format: cell-based; details: Table 2
Text: as §1, §2, §3

[7] = in vivo pharmacokinetics experiment in rats (Test Example 2); details: male, SD, rat, plasma
Protocol: Test animals: male SD rats, weighing 230-250 g, purchased from Shanghai SLAC Laboratory Animals Co., Ltd., Certificate of Conformity: SCXK (SH) 2007-0005 22045; Six rats were tested for each compound.
Test substances: Compound 2 of the present invention, prepared in accordance with the method of Example 3; dissolved in physiological saline.
Internal standard substance: The acetonitrile solution of 50 ng/ml KBP-5747 was used as an internal standard solution in the measurement of Compound 2.
Administration of Compound 2 of the present invention: intravenous bolus injection (iv), dose: 5 mg/kg, administrating volume: 5 mL/kg; gavage (po), dose: 5 mg/kg, administrating volume: 5 mL/kg. Prior to administration help but water fasting for 12 hours, 4 hours after administration to food.
iv blood sampling time point: denoted by 0 min before administration, 5 min, 15 min, 30 min, 1 h, 2 h, 4 h, 8 h, 24 h, 30 h, 48 h after administration
po blood sampling time point: denoted by 0 min before administration, 5 min, 15 min, 30 min, 1 h, 2 h, 4 h, 8 h, 24 h, 30 h, 48 h after administration
Each time point to take around 150 μl whole blood, centrifugated at 2000×g at 4° C. for 5 minutes in a low-temperature high-speed centrifuge to separate plasma, the resulting plasma frozen was at −70° C. in a refrigerator.
Plasma samples analysis: 30 μl of plasma was taken and added 100 μl of internal standard solution, subjected to vortex at 14,000 rev/min for 5 minutes, then to centrifugation at 12,000 rpm/min for 5 minutes. The supernatant was taken and analyzed using LC-MS/MS.
Formula Absolute Bioavailability F%=[AUC]INF (po)×Dose(iv)/[AUC]INF (iv)×Dose(po)

MIC [1]	MIC [2]	MIC [3]	MIC [4]	MIC [5]	MIC [6]	AUC(0-inf) ([7]; iv, 5 mg/kg)	clearance ([7]; iv, 5 mg/kg)	half-life ([7]; iv, 5 mg/kg)	Vd ([7]; iv, 5 mg/kg, read-out: Vss)	bioavailability ([7]; po 5 mg/kg vs iv 5 mg/kg, read-out: F % (absolute bioavailability))	AUC(0-inf) ([7]; po (gavage), 5 mg/kg)	Cmax ([7]; po (gavage), 5 mg/kg)	Tmax ([7]; po (gavage), 5 mg/kg)	half-life ([7]; po (gavage), 5 mg/kg)	SMILES
0.25 µg/mL (≈ 0.434 µM)	0.5 µg/mL (≈ 0.867 µM)	0.125 µg/mL (≈ 0.217 µM)	0.5 µg/mL (≈ 0.867 µM)	4 µg/mL (≈ 6.94 µM)	1 µg/mL (≈ 1.73 µM)	2290 ng·h/mL	37.2 mL/min/kg	244 min	5.12 L/kg	33.9%	777 ng·h/mL	251 ng/mL	1 h	139 min	CN(C)c1cc(CNC2CC(F)(F)C2)c(O)c2c1C[C@H]1C[C@H]3[C@H](N(C)C)C(O)=C(C(N)=O)C(=O)[C@@]3(O)C(O)=C1C2=O [Compound 2, (4S,4aS,5aR,12aS)-9-((3,3-difluorocyclobutylamino)methyl)-4,7-bis(dimethylamino)-3,10,12,12a-tetrahydroxy-1,1′-dioxo-1,4,4a,5,5a,6,11,12a-octahydrotetracene-2-carboxamide]
0.5 µg/mL (≈ 0.847 µM)	4 µg/mL (≈ 6.77 µM)	0.125 µg/mL (≈ 0.212 µM)	1 µg/mL (≈ 1.69 µM)	2 µg/mL (≈ 3.39 µM)	1 µg/mL (≈ 1.69 µM)										CN(C)c1cc(CNCC2CC(F)(F)C2)c(O)c2c1C[C@H]1C[C@H]3[C@H](N(C)C)C(O)=C(C(N)=O)C(=O)[C@@]3(O)C(O)=C1C2=O [Compound 10, (4S,4aS,5aR,12aS)-9-(((3,3-difluorocyclobutyl)methylamino)methyl)-4,7-bis(dimethylamino)-3,10,12,12a-tetrahydroxy-1,11-dioxo-1,4,4a,5,5a,6,11,12a-octahydrotetracene-2-carboxamide]
